Consider 7 molecules from EP0147498A2, “Method of testing chemical and biological substances” (Thorn, Werner Prof. Dr., priority 1983, dated 1985).

Data set [1] has as its system Magenschleimhaut. The experiment in a line: Plasma polyp (PP) formation at the gastric mucosa after application by stomach tube, PP isolated by reverse centrifugation and counted by phase-contrast microscopy. Conditions: for Anzahl der PP pro 1 g Rattenmagen: stomach tube, about 20-30 min. The source says: Die PP-Bildung, deren Konzentration und Auszählung wurden an Gruppen zu je 5 Ratten von 140 bis 160 g Körpergewicht, im Mittel 150 g, kontrolliert und die Anzahl der PP auf 1 g Magen (Leergewicht) umgerechnet. Die Tiere waren vor dem Versuch 15 bis 17 Stunden nahrungsfrei. Die Applikation der Testsubstanzen, die gelöst sind in Krebs-Ringer-Lösung (KRL) oder Aq.bidest, erfolgte per Schlundsonde. Die verabreichte Lösung besitzt einen pH-Wert von 7,0 bis 7,2. Die Verweildauer des applizierten Volumens hängt zum Teil ab von den Eigenschaften der Testsubstanz. […] Die Verweildauer der Testsubstanz bis zur Entnahme der Mägen einer Gruppe betrug etwa 20 bis maximal 30 min. Dabei werden dosisabhängig die abgeschnürten PP erfaßt.
Es wurden 5 Tierversuche - zu einer Serie zusammengefaßt - durchgeführt innerhalb von 40 min, wobei die Mägen wie folgt aufgearbeitet wurden: • 1. Jeder Ratte werden in nicht narkotisiertem Zustand 4,5 ml der Lösung bestehend aus der in KRL oder Aq.bidest gelösten Testsubstanz mittels einer Schlundsonde appliziert. • 2. Nach einer Einwirkzeit von etwa 15 bis 20 min werden 40 bis 45 mg Nembutal intraperitoneal appliziert, 2 bis 3 min zugewartet und dann der Magen während eines Zeitraums von etwa 5 min entnommen. • 3. Der Magen wird aufgeschnitten, der Inhalt aufgefangen, auf PP geprüft und der leere Magen in. oxygenierte KRL-Lösung mit Glucosezusatz geworfen. • 4. Alle 5 Mägen werden in der glucosehaltigen KRL dreimal hochtourig homogenisiert, das Homogenisat über ein feinmaschiges Sieb gegossen, und das Sieb wird mit 20 ml KRL nachgespült, so daß ein Endvolumen von 80 ml vorliegt. • 5. Die Volumina aus den Stufen 3 und 4 werden mit 8 ml eine: 7 %iger Lösung aus einem Copolymeren der Saccharose mit Epichlorhydrin unterschichtet und bei 2000 Umdrehungen/min im Schwingbecherrotor für 20 min zentrifugiert. • 6. Die die PP enthaltende Schicht wird erneut 60 min im Festwinkelrotor bei 13000 Umdrehungen/min (Ultrazentrifuge) zentrifugiert, der Uberstand wird verworfen und das Sediment weiterverarbeitet. • 7 Das Sediment wird einer umgekehrten Zentrifugation in der Ultrazentrifuge bei 25000 U/min für 45 min unterzogen. • 8. Die in einer Bohrung aufgefangenen PP aus der umgekehrten Zentrifugation werden in 50 µl KRL aufgenommen. • 9. Zur Auszählung der PP aus Stufe 8 bei einem Ansatz von jeweils 3 µl dient ein Phasenkontrastmikroskop. Es werden 10 Felder mit dem Rasterobjektiv ausgezählt, zum Teil unter fotografischer Kontrolle. Die in der nachfolgenden Tabelle aufgeführten Werte stammen jeweils aus drei Ansätzen; einer Probe von 5 Rattenmägen oder aus der Auswertung von 30 Feldern. • 10. Mittelwert pro Feld x Umrechnungsfaktor pro Feld x 16,6 ergibt die Zahl der PP pro Gramm Magen. Der Umrechnungsfaktor für die Feldfläche von 18 x 18 mm^2 ist 24,652.
Es wurden die in der folgenden Tabelle angegebenen Substanzen injiziert und dann die Anzahl der PP aus einer Serie von 5 Tieren als Mittelwert pro Gramm Rattenmagen oder gemittelt aus mehreren Serien mit jeweils 5 Tieren ermittelt.

The subject of data set [2] is Syncytiotrophoblasten der Placenta. Conditions: cited from earlier work; for PP-Bildung in Meerschweinchenplacenten: animal experiments, Archiv für Gynäkologie 216 (1974) and 221 (1976); for Auftreten von Plasmapolypen am Syncytiotrophoblasten der Placenta: poisoning of pregnant guinea pigs, within a few minutes, already known.

Regarding `CC(=O)Oc1ccccc1C(=O)O` [ASS, Acetylsalicylsäure], the “Anzahl der PP pro 1 g Rattenmagen” value was found to be 728.000 PP pro 1 g Rattenmagen in data set [1] (0,5 mmol ASS in 4,5 ml Aq.bidest, mean of 3 series of 5 rats) and 610.700 PP pro 1 g Rattenmagen in data set [1] (0,25 mmol ASS in 4,5 ml Aq.bidest, mean of 3 series of 5 rats). Consider `O=C(O)O` [NaHCO3], for which the “Anzahl der PP pro 1 g Rattenmagen” value in data set [1] (1,33 mmol NaHCO3 in 4,5 ml Aq.bidest, mean of 4 series of 5 rats) is given as 333.700 PP pro 1 g Rattenmagen. Regarding `CC(=O)C(=O)O` [Na-Pyruvat, Natriumpyruvat], the “Anzahl der PP pro 1 g Rattenmagen” value in data set [1] (0,5 mmol Na-Pyruvat in 4,5 ml Aq.bidest, 1 series of 5 rats) is listed as “etwa 220.000 PP pro 1 g Rattenmagen”. In data set [1] (Na-Pyruvat alone, compared with the blank), the “PP-Zahlen gegenüber der Blindprobe (4,5 ml Aq.bidest)” value is “keine Erhöhung”. As for `CC(O)C(=O)O` (centres unmarked) [Na-Lactat], the “Anzahl der PP pro 1 g Rattenmagen” value in data set [1] (2,0 mmol Na-Lactat in 4,5 ml Aq.bidest, mean of 4 series of 5 rats) came to 344.000 PP pro 1 g Rattenmagen.

On to `[F-].[Na+]` [Natriumfluorid], for which, in data set [2], the “PP-Bildung in Meerschweinchenplacenten” value was “verstärkte, reproduzierbare Bildung und Abschnürung von Zellprotrusionen” and the “Auftreten von Plasmapolypen am Syncytiotrophoblasten der Placenta” value is on record as “in großer Zahl”. Turning to `O=C(O)CI` [Monojodacetat], in data set [2], the “PP-Bildung in Meerschweinchenplacenten” value is given as “verstärkte, reproduzierbare Bildung und Abschnürung von Zellprotrusionen” and the “Auftreten von Plasmapolypen am Syncytiotrophoblasten der Placenta” value is listed as “in großer Zahl”.

In the case of `O=[N+]([O-])c1ccc(O)c([N+](=O)[O-])c1` [2.4-Dinitrophenol], the “PP-Bildung in Meerschweinchenplacenten” value in data set [2] is reported as “keiner vermehrten PP-Bildung”.
